Reference: patent US9278058B2, “Melanin production inhibitor” (Shiseido Company, Ltd., priority 2012, dated 2016)

Assays:
Mouse B16 melanoma cells [1] = assay: Cell proliferation test (alamar blue); format: cell-based; settings: for No. of Cells (%): 3 days, solvent-only group = 100
Protocol: As will be described in detail in the subsequent examples, screening for aromatic components of the melanin formation inhibitor was carried out by allowing various candidate aromatics to act on B16 melanoma, and evaluating cytotoxicity and the ratio of the amount of melanin (%) in comparison with a control (addition of solvent only). Mouse B16 melanoma cells were disseminated in a 6-well plate at 100,000 cells/well. On the following day, a test substance solution (solvent: ethyl alcohol) was added and used in a cell proliferation test and melanin formation inhibition test. A nature identical synthetic aromatic in the form of phenylethyl cinnamate (Toyotama International Inc.) was used for the test substance, and it was used in the tests indicated below. After aspirating off the medium 3 days after adding the test substance solution, 1 ml of EMEM medium containing 10% alamar blue solution was added and allowed to react at 37° C. 30 minutes later, 100 μl were transferred to a […] followed by measurement of fluorescence at an excitation wavelength of 544 nm and measurement wavelength of 590 nm. The ratio of the number of cells (% number of cells) of a test substance addition group based on a value of 100 for a test substance non-addition group (addition of solvent only) was calculated by using that value as a relative value of the number of viable cells. A higher value for % number of cells means a lower level of cytotoxicity.

Mouse B16 melanoma cells [2] = assay: Melanin formation inhibition test; format: cell-based; settings: for Ratio of Amount of Melanin (%): 3 days, solvent-only group = 100
Protocol: As will be described in detail in the subsequent examples, screening for aromatic components of the melanin formation inhibitor was carried out by allowing various candidate aromatics to act on B16 melanoma, and evaluating cytotoxicity and the ratio of the amount of melanin (%) in comparison with a control (addition of solvent only). Mouse B16 melanoma cells were disseminated in a 6-well plate at 100,000 cells/well. On the following day, a test substance solution (solvent: ethyl alcohol) was added and used in a cell proliferation test and melanin formation inhibition test. A nature identical synthetic aromatic in the form of phenylethyl cinnamate (Toyotama International Inc.) was used for the test substance, and it was used in the tests indicated below. The medium was aspirated off 3 days after addition of test substance, and after washing using a buffer (50 mM phosphate buffer, pH 6.8), 1 M NaOH solution was added to lyse the cells followed by measurement of absorbance at 475 nm. The ratio of the amount of melanin (%) of a test substance addition group based on a value of 100 for a test substance non-addition group (addition of solvent only) was calculated using that value as a relative value of the amount of melanin. A lower value for the ratio of the amount of melanin means higher melanin formation inhibitory effects.

[3] = test substance final concentration 1 ppm
[4] = test substance final concentration 2 ppm

For `O=C(/C=C/c1ccccc1)OCCc1ccccc1` [Phenylethyl Cinnamate, 2-Phenylethyl 3-phenyl • propenoate], which “cytotoxicity (in words)” value (Mouse B16 melanoma cells [1]; summary of Table 1 results) is on record?
Its value is “hardly any cytotoxicity”.

What about the “No. of Cells (%)” value (Mouse B16 melanoma cells [1]; [3]) of the same molecule?
The value was 94%.

And the “No. of Cells (%)” value (Mouse B16 melanoma cells [1]; [4])?
The value was 92%.

What about the “melanin formation inhibitory effects (in words)” value (Mouse B16 melanoma cells [2]; summary of Table 1 results) of the same molecule?
Its value is “superior melanin formation inhibitory effects”.

What about the “Ratio of Amount of Melanin (%)” value (Mouse B16 melanoma cells [2]; [3]) of the same molecule?
The value was 82%.

What about the “Ratio of Amount of Melanin (%)” value (Mouse B16 melanoma cells [2]; [4]) of the same molecule?
Its value is 74%.
